Peptide text beside a SMILES is read from it. * marks the point of attachment. Propanoyl(3-maleimido) = O=C1C=CC(=O)N1CCC(=O)*

The species entered for this test is Homo sapiens. The test is described as follows: Percent of unbound maleimide to human serum albumin. It counts as functional.
`CC(=O)N[C@@H](CCCN=C(N)N)C(=O)N[C@@H](CC(N)=O)C(=O)N1CCC[C@H]1C(=O)N[C@@H](CC(=O)O)C(=O)NCC(=O)N[C@@H](CC(=O)O)C(=O)N[C@H](C(=O)NCC(=O)NCC(=O)N1CCC[C@H]1C(=O)N[C@@H](Cc1c[nH]c2ccccc12)C(=O)N[C@@H](C)C(=O)N[C@@H](Cc1ccc(O)cc1)C(=O)N[C@H](C(=O)N[C@H](C(=O)N[C@@H](CC(N)=O)C(=O)N1CCC[C@H]1C(=O)N[C@@H](CCCN=C(N)N)C(=O)N[C@@H](CCCCN)C(=O)N[C@@H](CC(C)C)C(=O)N[C@@H](Cc1ccc(O)cc1)C(=O)N[C@@H](CC(=O)O)C(=O)N[C@@H](Cc1ccc(O)cc1)C(=O)N[C@@H](CCCCNC(=O)CCN1C(=O)C=CC1=O)C(N)=O)[C@@H](C)O)[C@@H](C)O)C(C)C` (Ac-RNPDGDVGGPWAYTTNPRKLYDYK(Propanoyl(3-maleimido))-NH2): the Activity came out at 0.22%.
`CC(C)C[C@H](NC(=O)[C@H](CCCCN)NC(=O)[C@H](CCCN=C(N)N)NC(=O)[C@@H]1CCCN1C(=O)CCN1C(=O)C=CC1=O)C(=O)N[C@@H](Cc1ccc(O)cc1)C(=O)N[C@@H](CC(=O)O)C(=O)N[C@@H](Cc1ccc(O)cc1)C(N)=O` ({Propanoyl(3-maleimido)}-PRKLYDY-NH2): the Activity is 1.1%.
As for `CC(C)C[C@H](NC(=O)[C@H](CCCCN)NC(=O)[C@H](CCCN=C(N)N)NC(=O)[C@@H]1CCCN1C(=O)[C@H](CC(N)=O)NC(=O)[C@@H](NC(=O)[C@@H](NC(=O)[C@H](Cc1ccc(O)cc1)NC(=O)[C@H](C)NC(=O)[C@H](Cc1c[nH]c2ccccc12)NC(=O)[C@@H]1CCCN1C(=O)CNC(=O)CNC(=O)[C@@H](NC(=O)[C@H](CC(=O)O)NC(=O)CNC(=O)[C@H](CC(=O)O)NC(=O)[C@@H]1CCCN1C(=O)[C@H](CC(N)=O)NC(=O)[C@H](CCCN=C(N)N)NC(=O)CCN1C(=O)C=CC1=O)C(C)C)[C@@H](C)O)[C@@H](C)O)C(=O)N[C@@H](Cc1ccc(O)cc1)C(=O)N[C@@H](CC(=O)O)C(=O)N[C@@H](Cc1ccc(O)cc1)C(N)=O` ({Propanoyl(3-maleimido)}-RNPDGDVGGPWAYTTNPRKLYDY-NH2), the figure is 1.6%.
